The source of these data is ChEMBL document CHEMBL3045689, “Synthesis of novel 2-(3-aryl-sydnon-4-ylidene)-5-substituted-[1,3,4]-thiadiazolylamines and [1,3,4]-thiadiazol-2-yl-3-oxo-[1,2,4]-triazoles as antimicrobial agents” (2012).

Converted amounts (≈) assume the structure as drawn.

One may read the MIC as the lowest concentration that inhibits growth of the organism. High values mean a less susceptible organism, low ones a more susceptible organism.

What all share (type): functional
The subject of test [1] is Bacillus cereus. In words: Antibacterial activity against Bacillus cereus after 18 to 24 hr by microbroth dilution method. (In broth dilution the organism is exposed to a series of concentrations in liquid medium.)
In test [2] the test system is Escherichia coli. In words: Antibacterial activity against Escherichia coli after 18 to 24 hr by microbroth dilution method.
Test [3] concerns Candida albicans. In words: Antifungal activity against Candida albicans after 18 to 24 hr by microbroth dilution method.
The test system of test [4] is Aspergillus niger. In words: Antifungal activity against Aspergillus niger after 18 to 24 hr by microbroth dilution method.

On to `Cc1nnc(-n2c(C)nn(-c3ccc(Cl)cc3)c2=O)s1`, for which the MIC was 15.6 µg/mL (≈ 50.7 µM) in test [1], 15.6 µg/mL (≈ 50.7 µM) in test [2], 7.8 µg/mL (≈ 25.3 µM) in test [3] and 7.8 µg/mL (≈ 25.3 µM) in test [4].

`Cc1ccc(-n2nc(C)n(-c3nnc(C)s3)c2=O)cc1`: the MIC in test [1], in test [2], in test [3] and in test [4] was 62.5 µg/mL (≈ 218 µM) in each case.

Consider `COc1ccc(-n2nc(C)n(-c3nnc(-c4ccccc4)s3)c2=O)cc1`, for which the minimum inhibitory concentration (MIC) stood at 125 µg/mL (≈ 342 µM) in test [1], 15.6 µg/mL (≈ 42.7 µM) in test [2], 31.2 µg/mL (≈ 85.5 µM) in test [3] and 62.5 µg/mL (≈ 171 µM) in test [4].

Take `Cc1ccc(-[n+]2noc([O-])c2/C=N/c2nnc(C)s2)cc1`: the minimum inhibitory concentration (MIC) in test [1] is 125 µg/mL (≈ 415 µM); in test [2] it was 62.5 µg/mL (≈ 207 µM); in test [3], 31.2 µg/mL (≈ 104 µM); in test [4] it was 125 µg/mL (≈ 415 µM).

With `[O-]c1on[n+](-c2ccccc2)c1/C=N/c1nnc(-c2ccccc2)s1`, the minimum inhibitory concentration (MIC) in test [1] was 125 µg/mL (≈ 358 µM); in test [2] it was 31.2 µg/mL (≈ 89.4 µM); in test [3], 31.2 µg/mL (≈ 89.4 µM); in test [4], 125 µg/mL (≈ 358 µM).

Regarding `Cc1nnc(/N=C/c2c([O-])on[n+]2-c2ccc(Cl)cc2)s1`, the MIC in test [1] came out at 62.5 µg/mL (≈ 194 µM); in test [2], 62.5 µg/mL (≈ 194 µM); in test [3] it was 7.8 µg/mL (≈ 24.2 µM); in test [4] it was 125 µg/mL (≈ 389 µM).

For the compound `Cc1nn(-c2ccccc2)c(=O)n1-c1nnc(-c2ccccc2)s1`, the minimum inhibitory concentration (MIC) in test [1] stood at 125 µg/mL (≈ 373 µM); in test [2], 31.2 µg/mL (≈ 93.2 µM); in test [3] it was 31.2 µg/mL (≈ 93.2 µM); in test [4], 62.5 µg/mL (≈ 186 µM).

Consider `COc1ccc(-n2nc(C)n(-c3nnc(C)s3)c2=O)cc1`, for which the MIC was found to be 31.5 µg/mL (≈ 104 µM) in test [1], 15.6 µg/mL (≈ 51.4 µM) in test [2], 31.2 µg/mL (≈ 103 µM) in test [3] and 7.8 µg/mL (≈ 25.7 µM) in test [4].

Regarding `COc1ccc(-[n+]2noc([O-])c2/C=N/c2nnc(-c3ccccc3)s2)cc1`, the minimal inhibitory concentration (MIC) in test [1], in test [2], in test [3] and in test [4] was 62.5 µg/mL (≈ 165 µM) each time.

Consider `CC(=O)N1CCN(c2ccc(OCC3COC(Cn4ccnc4)(c4ccc(Cl)cc4Cl)O3)cc2)CC1` (stereo not drawn) [KETOCONAZOLE], for which the minimum inhibitory concentration (MIC) in test [3] and in test [4] was 0.97 µg/mL (≈ 1.83 µM) in each case.

As to `[O-]c1on[n+](-c2ccc(Cl)cc2)c1/C=N/c1nnc(-c2ccccc2)s1`, the minimum inhibitory concentration (MIC) is 62.5 µg/mL (≈ 163 µM) in test [1], 31.2 µg/mL (≈ 81.4 µM) in test [2], 7.8 µg/mL (≈ 20.3 µM) in test [3] and 31.2 µg/mL (≈ 81.4 µM) in test [4].

`O=C(N[C@H](CO)[C@H](O)c1ccc([N+](=O)[O-])cc1)C(Cl)Cl` [CHLORAMPHENICOL]: the minimal inhibitory concentration (MIC) was 12.5 µg/mL (≈ 38.7 µM) in test [1] and 1.95 µg/mL (≈ 6.03 µM) in test [2].

Take `Cc1ccc(-[n+]2noc([O-])c2/C=N/c2nnc(-c3ccccc3)s2)cc1`: the minimal inhibitory concentration (MIC) in test [1] worked out at 125 µg/mL (≈ 344 µM); in test [2], 62.5 µg/mL (≈ 172 µM); in test [3], 3.9 µg/mL (≈ 10.7 µM); in test [4], 125 µg/mL (≈ 344 µM).

With `Cc1nnc(/N=C/c2c([O-])on[n+]2-c2ccccc2)s1`, the minimum inhibitory concentration (MIC) in test [1] came to 250 µg/mL (≈ 870 µM); in test [2], 62.5 µg/mL (≈ 218 µM); in test [3], 31.2 µg/mL (≈ 109 µM); in test [4], 125 µg/mL (≈ 435 µM).

For the compound `Cc1nnc(-n2c(C)nn(-c3ccccc3)c2=O)s1`, the minimal inhibitory concentration (MIC) worked out at 125 µg/mL (≈ 457 µM) in test [1], 62.5 µg/mL (≈ 229 µM) in test [2], 31.2 µg/mL (≈ 114 µM) in test [3] and 62.5 µg/mL (≈ 229 µM) in test [4].

Turning to `Cc1ccc(-n2nc(C)n(-c3nnc(-c4ccccc4)s3)c2=O)cc1`, the minimum inhibitory concentration (MIC) in test [1] was 62.5 µg/mL (≈ 179 µM); in test [2] it was 15.6 µg/mL (≈ 44.6 µM); in test [3] it was 125 µg/mL (≈ 358 µM); in test [4], 62.5 µg/mL (≈ 179 µM).

For `COc1ccc(-[n+]2noc([O-])c2/C=N/c2nnc(C)s2)cc1`, the MIC in test [1] is 125 µg/mL (≈ 394 µM); in test [2], 15.6 µg/mL (≈ 49.2 µM); in test [3], 7.8 µg/mL (≈ 24.6 µM); in test [4], 125 µg/mL (≈ 394 µM).

In the case of `Cc1nn(-c2ccc(Cl)cc2)c(=O)n1-c1nnc(-c2ccccc2)s1`, the minimum inhibitory concentration (MIC) turned out to be 15.6 µg/mL (≈ 42.2 µM) in test [1], 31.2 µg/mL (≈ 84.5 µM) in test [2], 7.8 µg/mL (≈ 21.1 µM) in test [3] and 15.6 µg/mL (≈ 42.2 µM) in test [4].
